Experimental data from patent publication US20150328199A1, “METHODS AND COMPOSITIONS USING 4-AMINO-2-(2,6-DIOXO-PIPERIDINE-3-YL)-ISOINDOLINE-1,3-DIONE FOR TREATMENT OF CANCERS” (Celgene Corporation, priority 2014, published 2015).

How the values were obtained:
[1] = Clinical pharmacokinetics of pomalidomide after single oral dose (non-compartmental analysis); assay type: in vivo, human
Experimental: Pomalidomide is absorbed with a maximum plasma concentration (Cmax) at a median time (tmax) between 2 hours and 3 hours after clinically relevant doses. Pomalidomide is >73% absorbed following administration of a single oral dose. […] Based on non-compartmental analysis, mean (percent coefficient of variation [%CV]) apparent volume of distribution (Vz/F) of pomalidomide after a single dose ranges from 74 L (20%) to 138 L (30%) across a dose range of 1 mg to 10 mg. Pomalidomide is extensively metabolized via multiple metabolic pathways and is eliminated in human via multiple pathways.

[2] = Comparative population pharmacokinetic analysis of pomalidomide with thalidomide and lenalidomide (two-compartment PPK model); assay type: in vivo, human; conditions: for drug exposure in central (plasma) compartment, patients versus healthy subjects: FIG. 7A, 8A; for drug exposure in peripheral compartment, patients versus healthy subjects: FIG. 7B, 8B; for relation of disease stage and peripheral compartment exposure in patients: FIG. 9
From the text: Population pharmacokinetic analysis of pomalidomide was compared with that of 2-(2,6-dioxopiperidin-3-yl)-1H-isoindole-1,3(2H)-dione (“thalidomide”) and 3-(4-amino-1-oxo-1,3-dihydro-2H-isoindo1-2-yl)piperidine-2,6-dione (“lenalidomide” also known as “Revlimid”), on available data from healthy subjects and MM patients. The results of analyses are provided in Table 7 and FIGS. 3A to FIGS. 9. FIGS. 3A and 3B provide concentration vs. time profiles for thalidomide, lenalidomide and pomalidomide.
The data of thalidomide and revlimid are based on a population pharmacokinetic analysis performed on data from studies using a two-compartment PPK model.

Compound	drug exposure in central (plasma) compartment, patients versus healthy subjects [2]	drug exposure in peripheral compartment, patients versus healthy subjects [2]	CL/F ([2]; HNV (healthy subjects)) [L/h]	KA ([2]; HNV (healthy subjects)) [h⁻¹]	Q/CL ([2]; HNV (healthy subjects)) [%]	Q/F ([2]; HNV (healthy subjects)) [L/h]	Tlag ([2]; HNV (healthy subjects)) [h]	CL/F ([2]; Patients (MM)) [L/h]	Q/CL ([2]; Patients (MM)) [%]	Q/F ([2]; Patients (MM)) [L/h]	Tlag ([2]; Patients (MM)) [h]	Relative Potential of Deep Penetration ([2]; HNV (healthy subjects)) [%]	V2/F ([2]; HNV (healthy subjects)) [L]	V3/F ([2]; HNV (healthy subjects)) [L]	V3/V2 ([2]; HNV (healthy subjects)) [%]	also measured
Nc1cccc2c1C(=O)N(C1CCC(=O)NC1=O)C2=O (stereo not drawn) [Pomalidomide, 4-amino-2-(2,6-dioxo-piperidine-3-yl)-isoindoline-1,3-dione]	comparable	higher drug exposure	8.52	1.25	11.8	1.01	0.385	7.78	48	3.75	0.206					Tmax ([1]; human, plasma, oral, after clinically relevant doses, read-out: median time (tmax) of maximum plasma concentration): 2 to 3 h; half-life ([1]; human, plasma, oral, read-out: geometric mean terminal half-life (t1/2) (converted)): ~7.5 h; Cmax versus dose ([1]; single dose): less than dose proportional; systemic exposure (AUC) versus dose ([1]; single dose): approximately dose-proportional; absorbed ([1]; single oral dose): > 73%; relation of disease stage and peripheral compartment exposure in patients [2]: higher disease stage were correlated with higher peripheral compartment pomalidomide exposure; relation of disease stage and peripheral compartment exposure in patients ([2]; listed as 4-amino-2-(2,6-dioxo-piperidine-3-yl)-isoindoline-1,3-dione): higher disease stage was correlated with higher peripheral compartment; KA ([2]; Patients (MM)): 1.25 h⁻¹
O=C1CCC(N2C(=O)c3ccccc3C2=O)C(=O)N1 (stereo not drawn) [Thalidomide, 2-(2,6-dioxopiperidin-3-yl)-1H-isoindole-1,3(2H)-dione]	comparable	comparable	9.66	0.536	4	0.355						0.6	83.3	13.5	16	
Nc1cccc2c1CN(C1CCC(=O)NC1=O)C2=O (stereo not drawn) [Revlimid, 3-(4-amino-1-oxo-1,3-dihydro-2H-isoindo1-2-yl)piperidine-2,6-dione]	comparable	comparable	16.8	5.41	12.7	2.14	0.25	10.2	11.1	1.13	0.235	2.1	56.5	9.49	16.8	Relative Potential of Deep Penetration ([2]; Patients (MM)): 1.9%; V2/F ([2]; Patients (MM)): 48.3 L; V3/F ([2]; Patients (MM)): 8.36 L; V3/V2 ([2]; Patients (MM)): 17.3%
